Laboratory results published in patent publication US20050020544A1, “Bicyclic CB2 cannabinoid receptor ligands” (priority 2002, published 2005).

Columns and labels:
[1] = tested on: male Sprague-Dawley rats; experiment: Chronic constriction nerve injury, neuropathic pain (Von Frey filaments); assay type: in vivo, rat
From the text: The aim of this study was to assess the potential analgesic effects of the novel bicyclic CB2 binding compounds in an animal model of neuropathic pain. A peripheral monopathy was induced in the right hind limb of rats following a chronic constriction of the sciatic nerve (Bennet, G. J. & Xie, Y-K., Pain 33: 87-107, 1988). The development of mechanical allodyna was monitored using an established behavioral test (Von Frey filaments).
Pre-surgery baseline values were ascertained as the mean of 2 pre-surgery values. Once the baseline values had been established, the animals were surgically prepared by constricting the right sciatic nerve with 4 chromic cat gut loose ligatures.
The design was randomized, performed in a masked fashion as to whether drug or vehicle is being given. The animals, male Sprague-Dawley rats (average body weight 240-290 g), were allowed to acclimatize to the behavioral testing equipment prior to testing. On the testing day, the animals, at least six per treatment group, were given i.p. a single dose of one of the test compounds in a volume of 2.5 ml/kg. Fifteen minutes later, a series of Von Frey filaments (pre-calibrated prior to testing) were applied to the plantar surface of the hind paw, from below. The filaments were applied in ascending order starting with the weakest force and the withdrawal threshold for both the ipsilateral and contralateral hind paws was evaluated. Each filament was indented on the mid-plantar surface of the foot to the point where it just starts to bend; this is repeated approximately 8-10 times per filament at a frequency of approximately 1 Hz. The withdrawal threshold is defined as being the lowest force of two or more consecutive Von Frey's filaments to elicit a reflex withdrawal response (i.e. a brief paw flick) and is measured in grams.
The results are expressed as % increase in the threshold of response to Von Frey's filaments in the test compound treated group versus the vehicle treated animals and per definition the vehicle treated group yields a null baseline value. The black column represents the morphine treated animals (4 mg/kg), the gray and the dotted column bars represent two doses of compound A (0.5 and 1 mg/kg respectively).

[2] = tested on: Male Sprague Dawley rats; experiment: Effect on the cardiovascular system (MABP, heart rate); assay type: in vivo, rat
Experimental: The purpose of this study was to assess the safety of the test compounds in male Sprague Dawley rats (270-350 g, Harlan, Israel). The test compounds were dissolved in vehicle, diluted 1:20 in sterile saline and injected either i.v. or i.p. at doses ranging from 0.1 to 2 mg/kg for i.v. administration or 10 to 40 mg/kg for i.p. administration, in volumes of 0.5 ml/100 g body weight. Each treatment group was composed of at least 6 animals. A cannula (PE 50, Clay Adams, USA) was implanted into the femoral artery under halothane anesthesia (induction 4% and maintenance 1%)). The vein was cannulated for drug administration. The arterial cannula was attached to a pressure transducer (Ohmeda DT-XX USA). The transducer was connected to a data acquisition system (Biopac, USA). Recordings of the heart rate (HR), mean arterial blood pressure (MABP) and electrocardiogram (ECG lead 2) were taken for 20 minutes before treatment, for the establishment of a stable baseline, up to 60 minutes following injections of the test compounds. Animals were also connected to a temperature recorder through a rectal thermistor probe (YSI Model 400, USA) and rectal temperature was monitored along the duration of the study.
Differences between vehicle and treatments are compared by one-way ANOVA, followed by post-hoc Newman-Keuls tests (Prism software from Graphpad, San Diego).

[3] = target: human CB2 receptor (Homo sapiens, UniProt P34972); experiment: biochemical; assay type: binding; parameters: purchased Perkin Elmer/NEN; host or cells: CHO cells, stably transfected (membranes); conditions: for IC50: displacement of [3H]WIN 55212-2, hCB2 CHO membranes; for CB2/CB1 affinity ratio: IC50 CB1/IC50 CB2
In short: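 Displacement of 0.8 nM [^3H]WIN 55212-2 from hCB2-transfected CHO membranes (25 μg protein) was measured in HEPES buffer pH 7.4 with MgCl2, EDTA and BSA, 40 min at 30 °C. Non-specific binding was defined with 10 μM CP 55940, then samples were filtered and β-counted. IC50 was extrapolated from log concentration vs % binding.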

[4] = 20 mg/kg i.p., one hour follow-up

Sequence of human CB2 receptor (P34972 whole entry): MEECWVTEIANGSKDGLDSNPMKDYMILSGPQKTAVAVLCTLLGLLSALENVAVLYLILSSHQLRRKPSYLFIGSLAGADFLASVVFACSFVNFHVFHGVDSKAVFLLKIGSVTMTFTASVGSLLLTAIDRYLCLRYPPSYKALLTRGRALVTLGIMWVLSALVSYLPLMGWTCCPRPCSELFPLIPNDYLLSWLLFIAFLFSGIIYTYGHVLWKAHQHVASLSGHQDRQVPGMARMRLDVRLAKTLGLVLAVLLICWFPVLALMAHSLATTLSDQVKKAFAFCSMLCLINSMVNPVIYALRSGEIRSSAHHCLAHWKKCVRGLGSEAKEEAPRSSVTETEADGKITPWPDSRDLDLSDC

CCCCCCC(C)(C)c1cc(O)c(C2CC(=O)C3CC2C3(C)C)c(O)c1 (single isomer, unassigned; (-)) [Compound A, (−)-4-[4-(1,1-Dimethyl-heptyl)2,6-dihydroxy-phenyl]-6,6-dimethyl-bicyclo[3.1.1)heptan-2-one]
increase in pain threshold (Von Frey) versus vehicle ([1]; 0.5 mg/kg i.p., 15 minutes): 71% | increase in pain threshold (Von Frey) versus vehicle ([1]; 1 mg/kg i.p., 15 minutes): 64% | effect on heart rate ([2]; 0.1 mg/kg i.v.): minor insignificant and transient decline in HR | decrease in MABP ([2]; 0.1 mg/kg i.v., 5 minutes post injection): 4 mmHg | time for MABP back to baseline range ([2]; 0.5 mg/kg i.v.): 30 min | decrease in MABP ([2]; 0.5 mg/kg i.v., 5 minutes): about 25 mmHg | time for MABP back to baseline range ([2]; 1 mg/kg i.v.): 45 min | decrease in MABP ([2]; 1 mg/kg i.v., 5 minutes): about 30 mmHg | drop in HR [2, 4]: about 17 beats per minute | drop in HR from baseline [2, 4]: 5% | maximal drop in HR ([2]; higher doses i.v.): about 80 beats per minute | hypotension (decrease in MABP) ([2]; i.p., up to 30 mg/kg): ≤ 15 mmHg | IC50 to CB2, fold lower than its (+) enantiomer ([3]; compound A versus (+) enantiomer): 10 fold | IC50 [3]: 1 nM

CCCCC(C)(C)c1cc(O)c(C2CC(=O)C3CC2C3(C)C)c(OC(=O)CCC(=O)O)c1 (single isomer, unassigned; (-)) [Compound Y, (−)-4-{4-[1,1-Dimethyl-pentyl]-2-succinate-6-hydroxy-phenyl}-6,6-dimethyl-bicyclo[3.1.1]heptan-2-one]
CB2/CB1 affinity ratio [3]: 42 | IC50 [3]: 7.4 nM

CCCCC(C)(C)c1cc(O)c(C2CC(=O)C3CC2C3(C)C)c(O)c1 (single isomer, unassigned; (-)) [Compound L, (−)-4-[4(1,1-Dimethyl-pentyl)-2,6-dihydroxy-phenyl]-6,6-dimethyl-bicyclo[3.1.1]heptan-2-one]
CB2/CB1 affinity ratio [3]: 117 | IC50 [3]: 3.8 nM

CCCCCCC(C)(C)c1cc(OC)c(C2C=C(CO)C3CC2C3(C)C)c(OC)c1 (single isomer, unassigned; (+)) [HU-308, (+) {4-[4-(1,1-dimethylheptyl)-2,6-dimethoxy-phenyl]-6,6-dimethyl-bicyclo[3.1.1]hept-2-en-2-yl}-methanol, reference compound]
increase in pain threshold (Von Frey) versus vehicle ([1]; 5 mg/kg, separate experiment): 117%

CCCCCCC(C)(C)c1cc(O)c([C@H]2CC(=O)[C@H]3C[C@@H]2C3(C)C)c(OC(=O)CCC(=O)O)c1 [Compound R, (−)-4-{4-[1,1-Dimethyl-heptyl]-2-succinate-6-hydroxy-phenyl}-6,6-dimethyl-bicyclo[3.1.1]heptan-2-one]
amplitude of HR fluctuations ([2]; 40 mg/kg i.p.): 10% | average drop in HR ([2]; 40 mg/kg i.p.): about 4 beats per minute | reduction in MABP ([2]; i.p., 40 mg/kg): ≤ 36 mmHg | CB2/CB1 affinity ratio [3]: 34 | IC50 [3]: 1.2 nM
